Drawing on patent publication US8846691B2, “Heterocyclic carboxylic acid derivatives having a 2,5,7-substituted oxazolopyrimidine ring” (Sanofi, priority 2010, dated 2014), this text covers activation for 16 compounds.

Molecules are shown by their SMILES.

T1 sequence (P21453 whole entry): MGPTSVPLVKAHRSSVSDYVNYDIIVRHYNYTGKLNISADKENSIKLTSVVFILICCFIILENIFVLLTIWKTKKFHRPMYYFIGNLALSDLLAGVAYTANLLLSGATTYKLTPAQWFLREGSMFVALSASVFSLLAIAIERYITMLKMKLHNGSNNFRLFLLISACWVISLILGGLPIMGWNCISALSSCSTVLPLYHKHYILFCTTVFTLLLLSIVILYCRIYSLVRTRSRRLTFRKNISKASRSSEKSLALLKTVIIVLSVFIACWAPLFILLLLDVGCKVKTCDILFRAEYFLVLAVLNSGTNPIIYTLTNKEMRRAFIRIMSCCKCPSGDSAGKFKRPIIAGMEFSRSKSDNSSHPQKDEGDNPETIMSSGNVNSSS

This test addresses T1, human Edg 1 receptor (Homo sapiens, UniProt P21453).
T1 construct: expressed in transfected cells; membrane preparation
Kind of test: GTP-γ-S assay using human Edg 1 receptors (scintillation proximity assay, CHO Flp-In membrane preparation). The test is classed as biochemical. Conditions: test compound at 10 μM; high control 10 μM S1P regarded as 100% activation; background-corrected; triplicate; read-out: % activation (Edg 1 receptor activation in percent of the activation by 10 μM S1P). The source says:
Determination of the Pharmacological Activity A) GTP-γ-S Assay Using Human Edg 1 Receptors
In order to determine the Edg 1 receptor activation by the compounds of the invention, a GTP-γ-S ((GTP-γ-S=guanosine 5′-[thio]triphosphate) assay for G-protein coupled receptor binding based on the scintillation proximity assay principle was used, employing a cell membrane preparation from a CHO Flp-In cell line which constitutively overexpresses the human Edg 1 receptor.
The Flp-In™ expression system (Invitrogen, cat. no. K6010-01) allows the generation of stable mammalian cell lines into which the gene of interest has been integrated through homologous recombination at a specific genomic location called Flp Recombination Target (FRT) site by means of a Flp recombinase encoded by the pOG44 expression plasmid. The integration of the pcDNA5/FRT expression construct into the Flp-In host cell line genome results in the transcription of the gene of interest. The stably transfected cells become hygromycin-resistant.
One day prior to transfection, 200 000 Flp-In-CHO cells were seeded in Ham F-12 medium (Invitrogen, cat. no. 31765) supplemented with 10% fetal calf serum (FCS; Perbio Science, cat. no. SH30068.03) in a 6-well plate and incubated at 37° C./5% CO2 overnight. Using the FuGENE® 6 transfection reagent (Roche, cat. no. 11988387001), cells were cotransfected with the Flp recombinase expression plasmid pOG44 and a modified plasmid additionally containing the edg 1 gene (accession no. NM_001400) termed as pcDNA5-FRT-TO_nFLAG_DEST-EDG 1 with a 9:1 ratio. To obtain the modified pcDNA5-FRT-TO_nFLAG_DEST plasmid, the Invitrogen plasmid pcDNA5/FRT/TO (Invitrogen, cat. no. V6520-20) was adapted to the Gateway® (Invitrogen) cloning system by inserting a Gateway cassette containing attR recombination sites flanking a ccdB gene and a chloramphenicol-resistance gene (Gateway conversion system, Invitrogen, cat. no. 11828-029). In addition a FLAG tag epitope was added before the 5′ att recombination site to allow recombinant expression of N-terminally FLAG-tagged proteins.
For the transfection of one well, 1.08 μg of pOG44 and 0.12 μg of pcDNA5-FRT-TO_nFLAG_DEST-EDG 1 were mixed with 100 μl of serum-free Ham F-12 medium containing 6 μl of FuGENE® 6 transfection reagent. After 20 min of incubation, the transfection reagent/DNA complex was distributed dropwise on the cells. The cells were incubated for 24 h at 37° C. Then the cells from 3 wells were transferred to a T75 flask (Greiner Cellstar®, cat. no. 658175) containing Ham F-12 medium supplemented with 10% of FCS but without antibiotic and were incubated for another 24 h. 48 h after transfection, the medium was replaced by selection medium (Ham F-12 supplemented with 10% of FCS and 300 μg/ml of hygromycin B (Invitrogen, cat. no. 10687-010)). The medium was exchanged every 2 to 3 days until a resistant population of cells had grown. […] After 2 weeks of selection, the cells were transferred into T175 flasks (Greiner Cellstar®, cat. no. 660175) and cultivated for batch production. Cells were harvested from the culture flasks by short treatment (2 to 5 min) with Accutase (PAA, cat. no. L^11-007), resuspended in selection medium (see above) and centrifuged at 200×g for 5 min. Cells were resuspended in a mixture of 90% of FCS and 10% of dimethyl sulfoxide and stored frozen in liquid nitrogen.
A membrane preparation was obtained by standard methods from the afore-described CHO Flp-In cell line constitutively overexpressing the human Edg 1 receptor. Briefly, the cryopreserved cells were taken in culture and grown until confluency in T175 cell culture flasks (Becton Dickinson, cat. no. 35 5001). […]
Turning to `CCCOc1nc(Oc2cc(F)ccc2F)nc2oc(-c3cc(C)c(OCC(=O)N4CCC[C@H]4C(=O)O)c(C)c3)nc12` [Example 1, (S)-1-(2-{4-[5-(2,5-Difluorophenoxy)-7-propoxyoxazolo[5,4-d]pyrimidin-2-yl]-2,6-dimethylphenoxy}acetyl)pyrrolidine-2-carboxylic acid], the activation at 10 µM is 101%.
With `CCCOc1nc(OC2CCCC[C@H]2F)nc2oc(-c3cc(C)c(OCC(=O)N4CCC[C@H]4C(=O)O)c(C)c3)nc12` (stereo partly drawn) [Example 2, (S)-1-(2-{4-[5-(trans-2-fluorocyclohexyloxy)-7-propoxyoxazolo[5,4-d]pyrimidin-2-yl]-2,6-dimethylphenoxy}acetyl)pyrrolidine-2-carboxylic acid], the activation at 10 µM was 97%.
Then `CCCOc1nc(Oc2ccccc2F)nc2oc(-c3cc(C)c(OCC(=O)N4CCC[C@H]4C(=O)O)c(C)c3)nc12` [Example 3, (S)-1-(2-{4-[5-(2-Fluorophenoxy)-7-propoxyoxazolo[5,4-d]pyrimidin-2-yl]-2,6-dimethylphenoxy}acetyl)pyrrolidine-2-carboxylic acid], with 96%; and `CCCOc1nc(Oc2cc(F)ccc2C)nc2oc(-c3cc(C)c(OCC(=O)N4CCC[C@H]4C(=O)O)c(C)c3)nc12` [Example 4, (S)-1-(2-{4-[5-(5-Fluoro-2-methylphenoxy)-7-propoxyoxazolo[5,4-d]pyrimidin-2-yl]-2,6-dimethylphenoxy}acetyl)pyrrolidine-2-carboxylic acid], with 110%.
Regarding `CCCOc1nc(Oc2ccc(C)c(F)c2)nc2oc(-c3cc(C)c(OCC(=O)N4CCC[C@H]4C(=O)O)c(C)c3)nc12` [Example 5, (S)-1-(2-{4-[5-(3-Fluoro-4-methylphenoxy)-7-propoxyoxazolo[5,4-d]pyrimidin-2-yl]-2,6-dimethylphenoxy}acetyl)pyrrolidine-2-carboxylic acid], the activation at 10 µM was found to be 79%.
Then `CCCOc1nc(Oc2cccnc2)nc2oc(-c3cc(C)c(OCC(=O)N4CCC[C@H]4C(=O)O)c(C)c3)nc12` [Example 6, (S)-1-(2-{2,6-Dimethyl-4-[7-propoxy-5-(pyridin-3-yloxy)oxazolo[5,4-d]pyrimidin-2-yl]phenoxy}acetyl)pyrrolidine-2-carboxylic acid], with 112%.
In the case of `CCCOc1nc(Oc2ccc(F)cc2F)nc2oc(-c3cc(C)c(OCC(=O)N4CCC[C@H]4C(=O)O)c(C)c3)nc12` [Example 7, (S)-1-(2-{4-[5-(2,4-Difluorophenoxy)-7-propoxyoxazolo[5,4-d]pyrimidin-2-yl]-2,6-dimethylphenoxy}acetyl)pyrrolidine-2-carboxylic acid], the activation at 10 µM worked out at 90%.
Then `CCCOc1nc(Oc2ccccc2)nc2oc(-c3cc(C)c(OCC(=O)N4CCC[C@H]4C(=O)O)c(C)c3)nc12` [Example 8, (S)-1-{2-[2,6-Dimethyl-4-(5-phenoxy-7-propoxyoxazolo[5,4-d]pyrimidin-2-yl)phenoxy]acetyl}pyrrolidine-2-carboxylic acid], with 108%.
As to `CCCOc1nc(Oc2cccc(Cl)c2)nc2oc(-c3cc(C)c(OCC(=O)N4CCC[C@H]4C(=O)O)c(C)c3)nc12` [Example 9, (S)-1-(2-{4-[5-(3-Chlorophenoxy)-7-propoxyoxazolo[5,4-d]pyrimidin-2-yl]-2,6-dimethylphenoxy}acetyl)pyrrolidine-2-carboxylic acid], the activation at 10 µM turned out to be 128%.
Regarding `CCOc1nc(Oc2cccc(Cl)c2)nc2oc(-c3cc(C)c(OCC(=O)N4CCC[C@H]4C(=O)O)c(C)c3)nc12` [Example 10, (S)-1-(2-{4-[5-(3-Chlorophenoxy)-7-ethoxyoxazolo[5,4-d]pyrimidin-2-yl]-2,6-dimethylphenoxy}acetyl)pyrrolidine-2-carboxylic acid], the activation at 10 µM was found to be 69%.
`CCOc1nc(Oc2cccc(F)c2)nc2oc(-c3cc(C)c(OCC(=O)N4CCC[C@H]4C(=O)O)c(C)c3)nc12` [Example 11, (S)-1-(2-{4-[7-Ethoxy-5-(3-fluorophenoxy)oxazolo[5,4-d]pyrimidin-2-yl]-2,6-dimethylphenoxy}acetyl)pyrrolidine-2-carboxylic acid]: the activation at 10 µM was 100%.
`CCOc1nc(Oc2ccccc2F)nc2oc(-c3cc(C)c(OCC(=O)N4CCC[C@H]4C(=O)O)c(C)c3)nc12` [Example 12, (S)-1-(2-{4-[7-Ethoxy-5-(2-fluorophenoxy)oxazolo[5,4-d]pyrimidin-2-yl]-2,6-dimethylphenoxy}acetyl)pyrrolidine-2-carboxylic acid]: the activation at 10 µM was 70%.
With `CCOc1nc(Oc2cc(F)ccc2F)nc2oc(-c3cc(C)c(OCC(=O)N4CCC[C@H]4C(=O)O)c(C)c3)nc12` [Example 13, (S)-1-(2-{4-[5-(2,5-Difluorophenoxy)-7-ethoxyoxazolo[5,4-d]pyrimidin-2-yl]-2,6-dimethylphenoxy}acetyl)pyrrolidine-2-carboxylic acid], the activation at 10 µM was found to be 95%.
Regarding `CCOc1nc(Oc2cc(F)ccc2C)nc2oc(-c3cc(C)c(OCC(=O)N4CCC[C@H]4C(=O)O)c(C)c3)nc12` [Example 14, (S)-1-(2-{4-[7-Ethoxy-5-(5-fluoro-2-methylphenoxy)oxazolo[5,4-d]pyrimidin-2-yl]-2,6-dimethylphenoxy}acetyl)pyrrolidine-2-carboxylic acid], the activation at 10 µM worked out at 99%.
With `CCCOc1nc(N(C)CCC(F)(F)F)nc2oc(-c3cc(C)c(OCC(=O)N4CCC[C@H]4C(=O)O)c(C)c3)nc12` [Example 15, (S)-1-[2-(2,6-Dimethyl-4-{5-[methyl-(3,3,3-trifluoropropyl)amino]-7-propoxyoxazolo[5,4-d]pyrimidin-2-yl}phenoxy)acetyl]pyrrolidine-2-carboxylic acid], the activation at 10 µM turned out to be 42%.
Turning to `CCCOc1nc(OCC2CCC2)nc2oc(-c3cc(C)c(OCC(=O)N4CCC[C@H]4C(=O)O)c(C)c3)nc12` [Example 16, (S)-1-{2-[4-(5-Cyclobutylmethoxy-7-propoxyoxazolo[5,4-d]pyrimidin-2-yl)-2,6-dimethylphenoxy]acetyl}pyrrolidine-2-carboxylic acid], the activation at 10 µM was determined as 85%.
